The values below come from patent publication US20150011528A1, “PHENYLIMIDE-CONTAINING BENZOTHIAZOLE DERIVATIVE OF ITS SALT AND PHARMACEUTICAL COMPOSITION COMPRISING THE SAME” (YUHAN CORPORATION, priority 2011, published 2015).

Common to all, as to type: cell-based
Series [1] in a line: Cytotoxicity Study (WST). The settings on record: human; A549 cells, serum-free RPMI1640, test compounds 0.39˜100 μM, 5 hours + 2 hours WST, absorbance 450 nm. On the procedure:
A549 cells (Korean Cell Line Bank) was added to a 96-well plate in a concentration of 2×10^4 cells per well and then a RPMI1640 medium supplemented with 10% fetal bovine serum was added to each well. After culturing 24 hours, the medium was changed with a serum-free RPMI1640 medium and then test compounds (0.39˜100 μM) were treated. After culturing at 37° C. for 5 hours in a CO2 incubator, 10 μL of a WST reagent (Roche) was added to each well, which was then cultured for additional 2 hours. A microplate reader was used to measure the absorbance at 450 nm. From the absorbance values, each IC50 value was calculated by non-linear regression curve fit using the ‘GraphPad Prism” program.
The cytotoxicity study was performed, using the reduction of WST by the NADH produced by the electron transport system of mitochondria. […] Therefore, the compounds of the present invention have therapeutic activity against a disease associated with cancer cell metastasis through (i) selective inhibition against the binding between KRS and LR and (ii) inhibition of cell migration, rather than non-specific cytotoxicity.

Series [2] relates to A549 cells. Kind of series: Cell Migration Assay (transwell, laminin). As to conditions: Homo sapiens, laminin 10 μg/mL in lower well, test compounds 0.39˜100 μM, 6 hours at 37° C. A digest of the protocol:
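A549 cells in serum-free RPMI1640 migrated 6 h at 37 °C through 8.0 μm-pore polycarbonate membranes toward laminin (10 μg/mL), compound (0.39–100 μM) in both chambers. Migrated cells hematoxylin-stained, counted at three fields (×20); IC50 by non-linear regression.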

Series [3] deals with T1, interaction between the KRS protein and the laminin receptor (LR) (Homo sapiens, UniProt Q15046).
T1 construct: expressed in transfected cells; host or cells: yeast EGY/SH cells
Kind of series: Yeast Two Hybrid inhibition of the interaction between the KRS protein and the laminin receptor (LR). As to conditions: 1 μL of 20 mM DMSO solution per 200 μL culture; 30° C., 6 days; absorbance 540 nm; non-treated control = 100%. The procedure:
The inhibitory activity against the interaction between the KRS protein and the laminin receptor (LR) was evaluated according to the Yeast Two Hybrid method described in WO2011/056021. According to the disclosures of WO2011/056021, we prepared a vector obtained by cloning the KRS gene in the LexA vector (Clontech) and a vector obtained by cloning the LR gene in the B42 vector (Clontech). The yeast cells, i.e., EGY/SH cells were co-transformed with the LexA-KRS vector and the B42-LR vector. The co-transformation was carried out using the Yeastmaker yeast transformation system2 kit (Clontech), according to the manufacturer's instruction. […] The cultured yeast cells were diluted with the said galactose medium, until the absorbance at 540 nm attains to about 0.15 to 0.2. The diluted culture (200 μL), containing the yeast cells, was added to each well of a 96-well plate. Each test compound was dissolved in dimethyl sulfoxide at a concentration of 20 mM and then the resulting solutions (1 μL) were added to each well. The plate was cultured at 30° C. for 6 days and then the absorbance of the each well was measured at 540 nm.
(§1) And also, specificity of the inhibitory activity was evaluated, using the yeast cells cotransformed with the LexA-KRS vector and the B42-AIMP2 vector; and the yeast cells co-transformed with the LexA-KRS vector and the B42-AIMP3 vector, which were respectively prepared according to WO2011/056021. The co-transformation was carried out using the Yeastmaker yeast transformation system2 kit (Clontech), according to the manufacturer's instruction. […] The cultured yeast cells were diluted with the said galactose medium, until the absorbance at 540 nm attains to about 0.15 to 0.2. The diluted culture (200 μL), containing the yeast cells, was added to each well of a 96-well plate. Each test compound was dissolved in dimethyl sulfoxide at a concentration of 20 mM and then the resulting solutions (1 μL) were added to each well. The plate was cultured at 30° C. for 6 days and then the absorbance of each well was measured at 540 nm. The respective yeast cell proliferation rates (%) in the treated samples were calculated in comparison with those of the non-treated control (100%) and the results thereof are shown in Table 1 below.
When KRS is bound to LR, the trans-activation domain is come close to the DNA-binding domain and the genes for synthesizing essential amino acids are expressed, which leads to normal growth of the transformed yeasts, thereby increasing the absorbance.

Series [4] has as its target T2, binding between KRS and AIMP2 (Homo sapiens, UniProt Q15046).
T2 construct: expressed in transfected cells; host or cells: yeast cells (co-transformed)
Kind of series: Yeast Two Hybrid specificity test, LexA-KRS / B42-AIMP2 co-transformed yeast cells. The settings on record: 1 μL of 20 mM DMSO solution per 200 μL culture; 30° C., 6 days; absorbance 540 nm; non-treated control = 100%. On the procedure: as §1

For series [5], the target named is T3, binding between KRS and AIMP3 (Homo sapiens, UniProt Q15046).
T3 construct: expressed in transfected cells; host or cells: yeast cells (co-transformed)
The series can be described thus: Yeast Two Hybrid specificity test, LexA-KRS / B42-AIMP3 co-transformed yeast cells. The settings on record: 1 μL of 20 mM DMSO solution per 200 μL culture; 30° C., 6 days; absorbance 540 nm; non-treated control = 100%. On the procedure:
as §1

T2 sequence (Q15046 whole entry): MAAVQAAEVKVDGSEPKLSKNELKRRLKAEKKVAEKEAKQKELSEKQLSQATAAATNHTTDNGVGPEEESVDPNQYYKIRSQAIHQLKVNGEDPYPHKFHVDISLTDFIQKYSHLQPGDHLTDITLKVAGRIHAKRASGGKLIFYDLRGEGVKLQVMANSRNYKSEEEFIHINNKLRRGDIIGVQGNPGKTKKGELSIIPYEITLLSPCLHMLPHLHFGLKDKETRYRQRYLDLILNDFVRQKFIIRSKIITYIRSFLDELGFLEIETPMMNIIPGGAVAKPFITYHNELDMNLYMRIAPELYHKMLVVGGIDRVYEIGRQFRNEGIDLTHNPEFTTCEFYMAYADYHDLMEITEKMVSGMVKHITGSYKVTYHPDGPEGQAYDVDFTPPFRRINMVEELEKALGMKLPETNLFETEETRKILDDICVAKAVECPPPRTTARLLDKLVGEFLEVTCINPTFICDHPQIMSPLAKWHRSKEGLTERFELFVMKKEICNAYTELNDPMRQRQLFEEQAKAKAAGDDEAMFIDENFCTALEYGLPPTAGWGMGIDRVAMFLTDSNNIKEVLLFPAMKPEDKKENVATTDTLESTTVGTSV
T3 sequence (Q15046 whole entry): as above
T1 sequence (Q15046 whole entry): as above

Broadly, the IC50 is the concentration that inhibits the measured activity by half. Take `CCC(C(=O)O)n1c(=NC(=O)c2cc(F)cc(F)c2)sc2ccccc21` (stereo not shown) [Example 78, 2-[2-(3,5-difluorobenzoylimino)benzo[d]thiazol-3(2H)-yl]butanoic acid]: the IC50 at 5 h in series [1] is 636 µM. Moreover, in series [2], the IC50 was found to be 15.9 µM.
With `CCC(C(=O)O)n1c(=NC(=O)c2cccc(Cl)c2)sc2cc(OC(F)(F)F)ccc21` (stereo not shown) [Example 176, 2-(2-((3-chlorobenzoyl)imino)-6-(trifluoromethoxy)benzo[d]thiazol-3(2H)-yl)butanoic acid], the IC50 at 5 h in series [1] was found to be 247 µM. Further, the IC50 in series [2] stood at 5.8 µM.
As to `CCC(C(=O)O)n1c(=NC(=O)c2cccc(C(F)(F)F)c2)sc2cc(F)c(F)cc21` (stereo not shown) [Example 293, 2-(5,6-difluoro-2-((3-(trifluoromethyl)benzoyl)imino)benzo[d]thiazol-3(2H)-yl)butanoic acid], the IC50 at 5 h in series [1] is 144 µM. Besides, in series [2], the IC50 worked out at 1 µM.
Regarding `CC(C(=O)O)n1c(=NC(=O)c2cccc(C(F)(F)F)c2)sc2c(Cl)cccc21` (stereo not shown) [Example 308, 2-(7-chloro-2-((3-(trifluoromethyl)benzoyl)imino)benzo[d]thiazol-3(2H)-yl)propionic acid], the IC50 at 5 h in series [1] was determined as 267 µM. Moreover, the midpoint of inhibition in series [2], the IC50, lay at 6.6 µM.
Regarding `O=C(O)Cn1c(=NC(=O)c2cccc(Cl)c2)sc2ccc(Cl)cc21` [Example 312, 2-(5-chloro-2-(3-chlorobenzoylimino)benzo[d]thiazol-3(2H)-yl)acetic acid], in series [3], the “Yeast cell proliferation rates KRS-LR (%)” value amounted to 14.6%. Besides, the “Yeast cell proliferation rates KRS-AIMP2 (%)” value in series [4] is recorded as 89.6%. The “Yeast cell proliferation rates KRS-AIMP3 (%)” value in series [5] turned out to be 99.0%. In series [2], this compound gave an IC50 of 36 µM.
`CCC(C(=O)O)n1c(=NC(=O)c2ccc([N+](=O)[O-])cc2)sc2ccccc21` (stereo not shown) [Example 81, 2-[2-(4-nitrobenzoylimino)benzo[d]thiazol-3(2H)-yl]butanoic acid]: the IC50 at 5 h in series [1] is 828 µM.
`COc1cccc2sc(=NC(=O)c3cccc(C(F)(F)F)c3)n(C(C)C(=O)O)c12` (stereo not shown) [Example 283, 2-(4-methoxy-2-(3-(trifluoromethyl)benzoylimino)benzo[d]thiazol-3(2H)-yl)propionic acid]: the IC50 at 5 h in series [1] is 108 µM. Moreover, the IC50 in series [2] was 10 µM.
`CCOc1ccc2c(c1)sc(=NC(=O)c1cccc(Cl)c1)n2C(C)C(=O)O` (stereo not shown) [Example 55, 2-{2-[(3-chlorobenzoyl)imino]-6-ethoxybenzo[d]thiazol-3(2H)-yl}propionic acid]: the “Yeast cell proliferation rates KRS-LR (%)” value in series [3] is recorded as 41.4%. Moreover, the “Yeast cell proliferation rates KRS-AIMP2 (%)” value in series [4] is 106.0%. The “Yeast cell proliferation rates KRS-AIMP3 (%)” value in series [5] was 105.3%. Further, the IC50 in series [2] amounted to 22 µM.
Consider `CC(C(=O)O)n1c(=NC(=O)c2cccc(Cl)c2)sc2cc(F)c(C(F)(F)F)cc21` (stereo not shown) [Example 388, 2-(2-((3-chlorobenzoyl)imino)-6-fluoro-5-(trifluoromethyl)benzo[d]thiazol-3(2H)-yl)propionic acid], for which the IC50 at 5 h in series [1] stood at 368 µM. Further, half-maximal inhibition in series [2] (IC50) was put at 37.4 µM.
Take `CCC(C(=O)O)n1c(=NC(=O)c2ccc(C(F)(F)F)cc2)sc2ccccc21` (stereo not shown) [Example 64, 2-{2-[4-(trifluoromethyl)benzoylimino]benzo[d]thiazol-3(2H)-yl}butanoic acid]: the “Yeast cell proliferation rates KRS-LR (%)” value in series [3] worked out at 28.8%. Moreover, in series [4], the “Yeast cell proliferation rates KRS-AIMP2 (%)” value is recorded as 99.2%. For the same compound, in series [5], the “Yeast cell proliferation rates KRS-AIMP3 (%)” value amounted to 104.1%. Further, in series [2], the IC50 is 20.1 µM.
Take `CCC(C(=O)O)n1c(=NC(=O)c2cccc(Cl)c2)sc2c(Cl)cccc21` (stereo not shown) [Example 310, 2-(7-chloro-2-((3-chlorobenzoyl)imino)benzo[d]thiazol-3(2H)-yl)butanoic acid]: the “Yeast cell proliferation rates KRS-LR (%)” value in series [3] is given as 15.9%. Also, in series [4], the “Yeast cell proliferation rates KRS-AIMP2 (%)” value was 100.2%. Besides, the “Yeast cell proliferation rates KRS-AIMP3 (%)” value in series [5] was determined as 105.4%. The compound further came in with an IC50 in series [2] of 6.5 µM.
As for `CC(C(=O)O)n1c(=NC(=O)c2cccc(Cl)c2)sc2c(F)c(Cl)ccc21` (stereo not shown) [Example 385, 2-(6-chloro-2-((3-chlorobenzoyl)imino)-7-fluorobenzo[d]thiazol-3(2H)-yl)propionic acid], the “Yeast cell proliferation rates KRS-LR (%)” value in series [3] is on record as 11.6%. The “Yeast cell proliferation rates KRS-AIMP2 (%)” value in series [4] was 108.2%. The “Yeast cell proliferation rates KRS-AIMP3 (%)” value in series [5] is 99.1%. In series [2], this compound registered an IC50 of 25.4 µM.
The like results for `CCC(C(=O)O)n1c(=NC(=O)c2cccc(C(F)(F)F)c2)sc2ccccc21` (stereo not shown) [Example 142, 2-[2-(3-(trifluoromethyl)benzoylimino)benzo[d]thiazol-3(2H)-yl]butanoic acid] were, in that order, 39.4%, 95.0%, 106.5% and 14.7 µM.
The corresponding values for `CCC(C(=O)O)n1c(=NC(=O)c2cccc(Cl)c2)sc2ccccc21` (stereo not shown) [Example 139, 2-[2-(3-chlorobenzoylimino)benzo[d]thiazol-3(2H)-yl]butanoic acid] are 31.5%, 79.4%, 102.1% and 18.9 µM.
For the compound `CC(C(=O)O)n1c(=NC(=O)c2cccc(Cl)c2)sc2cc(C(F)(F)F)ccc21` (stereo not shown) [Example 172, 2-(2-((3-chlorobenzoyl)imino)-6-(trifluoromethyl)benzo[d]thiazol-3(2H)-yl)propionic acid], the “Yeast cell proliferation rates KRS-LR (%)” value in series [3] was determined as 36.3%. Besides, in series [4], the “Yeast cell proliferation rates KRS-AIMP2 (%)” value came out at 90.0%. Besides, the “Yeast cell proliferation rates KRS-AIMP3 (%)” value in series [5] was determined as 104.1%. In series [2], this compound came in with an IC50 of 37.9 µM.
On to `CCC(C(=O)O)n1c(=NC(=O)c2ccc(C)cc2)sc2c(F)cccc21` (stereo not shown) [Example 93, 2-[7-fluoro-2-(4-methylbenzoylimino)benzo[d]thiazol-3(2H)-yl]butanoic acid], for which, in series [3], the “Yeast cell proliferation rates KRS-LR (%)” value turned out to be 33.2%. Besides, the “Yeast cell proliferation rates KRS-AIMP2 (%)” value in series [4] amounted to 88.5%. Also, the “Yeast cell proliferation rates KRS-AIMP3 (%)” value in series [5] amounted to 102.7%. In series [2], this compound had an IC50 of 17.6 µM.
Regarding `CC(C(=O)O)n1c(=NC(=O)c2cccc(C(F)(F)F)c2)sc2ccccc21` (stereo not shown) [Example 133, 2-{2-[3-(trifluoromethyl)benzoylimino]benzo[d]thiazol-3(2H)-yl}propionic acid], the “Yeast cell proliferation rates KRS-LR (%)” value in series [3] is recorded as 33.2%. The “Yeast cell proliferation rates KRS-AIMP2 (%)” value in series [4] was 82.1%. The “Yeast cell proliferation rates KRS-AIMP3 (%)” value in series [5] is recorded as 92.8%. This compound came in with an IC50 in series [2] of 11.4 µM.
For the compound `CCC(C(=O)O)n1c(=NC(=O)c2cccc(Cl)c2)sc2cc(C)ccc21` (stereo not shown) [Example 59, 2-{2-[(3-chlorobenzoyl)imino]-6-methylbenzo[d]thiazol-3(2H)-yl}butanoic acid], in series [3], the “Yeast cell proliferation rates KRS-LR (%)” value amounted to 31.7%. The “Yeast cell proliferation rates KRS-AIMP2 (%)” value in series [4] was 97.7%. The “Yeast cell proliferation rates KRS-AIMP3 (%)” value in series [5] came out at 80.8%. The compound also came in with an IC50 in series [2] of 29.6 µM.
Consider `CCC(C(=O)O)n1c(=NC(=O)c2ccccc2)sc2ccccc21` (stereo not shown) [Example 136, 2-[2-(benzoylimino)benzo[d]thiazol-3(2H)-yl]butanoic acid], for which the IC50 at 5 h in series [1] came out at 281 µM.
